# Laboratory results reported in patent publication US20240150360A1 (THE REGENTS OF THE UNIVERSITY OF MICHIGAN, priority 2021, published 2024).
# Where two headings read alike, the source gives them in different places.
# What was measured:
# P300 = target: T1, P300 (Homo sapiens, UniProt Q09472); assay: P300 degradation in 22Rv1 cells (5 h); assay type: cell-based; settings: for Dmax: read-out: P300 Degradation (22Rv1, 5 h) DCmax
# T1 construct: endogenous in cells; host or cells: 22Rv1 (ATCC CRL-2505) human prostate cancer cells
# T1 sequence (Q09472 whole entry): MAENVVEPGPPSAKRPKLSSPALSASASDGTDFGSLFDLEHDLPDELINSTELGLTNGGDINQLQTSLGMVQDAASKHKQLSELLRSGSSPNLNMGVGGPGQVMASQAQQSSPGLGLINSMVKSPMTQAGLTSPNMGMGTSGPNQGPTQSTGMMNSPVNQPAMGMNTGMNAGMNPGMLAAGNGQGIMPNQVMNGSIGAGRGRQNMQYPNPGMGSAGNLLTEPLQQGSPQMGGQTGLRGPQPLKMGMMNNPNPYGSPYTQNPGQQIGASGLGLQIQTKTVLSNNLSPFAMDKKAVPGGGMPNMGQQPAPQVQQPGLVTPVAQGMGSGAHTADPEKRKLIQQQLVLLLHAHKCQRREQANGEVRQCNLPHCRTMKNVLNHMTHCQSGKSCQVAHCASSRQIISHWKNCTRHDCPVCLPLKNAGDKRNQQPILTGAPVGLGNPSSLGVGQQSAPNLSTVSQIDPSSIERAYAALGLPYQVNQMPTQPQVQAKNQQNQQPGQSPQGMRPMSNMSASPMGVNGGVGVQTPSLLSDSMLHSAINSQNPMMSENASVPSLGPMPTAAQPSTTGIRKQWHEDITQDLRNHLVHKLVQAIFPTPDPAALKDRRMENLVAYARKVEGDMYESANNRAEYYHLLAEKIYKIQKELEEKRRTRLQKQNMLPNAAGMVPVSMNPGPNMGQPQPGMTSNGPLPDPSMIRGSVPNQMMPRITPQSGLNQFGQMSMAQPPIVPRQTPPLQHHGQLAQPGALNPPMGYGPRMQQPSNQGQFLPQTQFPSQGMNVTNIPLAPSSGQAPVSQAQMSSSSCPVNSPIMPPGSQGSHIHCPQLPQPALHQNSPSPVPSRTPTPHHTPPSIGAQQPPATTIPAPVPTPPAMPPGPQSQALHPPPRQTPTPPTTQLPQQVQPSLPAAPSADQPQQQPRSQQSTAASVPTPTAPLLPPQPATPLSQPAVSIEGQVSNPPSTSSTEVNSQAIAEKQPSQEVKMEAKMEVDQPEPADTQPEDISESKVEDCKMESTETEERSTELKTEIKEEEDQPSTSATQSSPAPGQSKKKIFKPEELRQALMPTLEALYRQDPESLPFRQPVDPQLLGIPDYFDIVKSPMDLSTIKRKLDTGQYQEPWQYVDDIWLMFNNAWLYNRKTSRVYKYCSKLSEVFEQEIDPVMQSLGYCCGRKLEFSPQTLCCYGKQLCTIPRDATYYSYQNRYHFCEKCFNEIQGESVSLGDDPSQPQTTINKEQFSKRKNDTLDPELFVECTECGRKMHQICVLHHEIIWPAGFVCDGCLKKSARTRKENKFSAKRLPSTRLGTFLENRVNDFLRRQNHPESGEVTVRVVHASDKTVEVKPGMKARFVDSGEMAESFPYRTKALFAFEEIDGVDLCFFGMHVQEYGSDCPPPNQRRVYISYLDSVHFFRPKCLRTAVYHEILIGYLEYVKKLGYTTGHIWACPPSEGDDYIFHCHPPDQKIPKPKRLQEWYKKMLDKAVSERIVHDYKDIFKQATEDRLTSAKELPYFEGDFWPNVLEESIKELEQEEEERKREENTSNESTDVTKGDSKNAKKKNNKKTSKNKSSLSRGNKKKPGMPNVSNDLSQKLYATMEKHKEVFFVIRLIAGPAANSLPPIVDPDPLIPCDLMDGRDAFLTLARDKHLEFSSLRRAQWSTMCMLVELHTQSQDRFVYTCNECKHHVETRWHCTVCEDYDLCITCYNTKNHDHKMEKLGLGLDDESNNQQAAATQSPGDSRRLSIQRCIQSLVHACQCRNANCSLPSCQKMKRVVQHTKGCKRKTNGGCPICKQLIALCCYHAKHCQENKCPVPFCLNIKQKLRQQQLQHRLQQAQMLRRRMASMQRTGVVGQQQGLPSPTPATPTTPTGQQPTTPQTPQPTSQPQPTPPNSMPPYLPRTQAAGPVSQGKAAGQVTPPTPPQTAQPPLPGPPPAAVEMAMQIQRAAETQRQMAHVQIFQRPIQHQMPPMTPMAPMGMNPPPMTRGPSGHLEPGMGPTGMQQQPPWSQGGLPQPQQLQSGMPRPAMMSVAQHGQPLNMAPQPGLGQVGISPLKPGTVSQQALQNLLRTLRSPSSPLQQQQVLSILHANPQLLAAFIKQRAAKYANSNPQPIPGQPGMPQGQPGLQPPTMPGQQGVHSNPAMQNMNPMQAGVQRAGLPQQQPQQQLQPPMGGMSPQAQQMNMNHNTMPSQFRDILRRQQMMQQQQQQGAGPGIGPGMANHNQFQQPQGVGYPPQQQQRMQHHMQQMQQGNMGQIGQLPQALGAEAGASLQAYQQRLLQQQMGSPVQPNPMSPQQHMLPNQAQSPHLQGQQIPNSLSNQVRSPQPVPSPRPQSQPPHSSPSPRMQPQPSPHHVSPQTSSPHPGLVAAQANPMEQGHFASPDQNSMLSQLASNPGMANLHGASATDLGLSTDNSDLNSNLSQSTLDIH
# Text: (§1) Biological Assays. […] Cells with 3-8 passages after purchase were used in experiments.
# CBP = target: T2, CBP (Homo sapiens, UniProt Q92793); assay: CBP degradation in 22Rv1 cells (5 h); assay type: cell-based; settings: for Dmax: 22Rv1, 5 h, read-out: CBP Degradation (22Rv1, 5 h) DCmax
# T2 construct: endogenous in cells; host or cells: 22Rv1 (ATCC CRL-2505) human prostate cancer cells
# T2 sequence (Q92793 whole entry): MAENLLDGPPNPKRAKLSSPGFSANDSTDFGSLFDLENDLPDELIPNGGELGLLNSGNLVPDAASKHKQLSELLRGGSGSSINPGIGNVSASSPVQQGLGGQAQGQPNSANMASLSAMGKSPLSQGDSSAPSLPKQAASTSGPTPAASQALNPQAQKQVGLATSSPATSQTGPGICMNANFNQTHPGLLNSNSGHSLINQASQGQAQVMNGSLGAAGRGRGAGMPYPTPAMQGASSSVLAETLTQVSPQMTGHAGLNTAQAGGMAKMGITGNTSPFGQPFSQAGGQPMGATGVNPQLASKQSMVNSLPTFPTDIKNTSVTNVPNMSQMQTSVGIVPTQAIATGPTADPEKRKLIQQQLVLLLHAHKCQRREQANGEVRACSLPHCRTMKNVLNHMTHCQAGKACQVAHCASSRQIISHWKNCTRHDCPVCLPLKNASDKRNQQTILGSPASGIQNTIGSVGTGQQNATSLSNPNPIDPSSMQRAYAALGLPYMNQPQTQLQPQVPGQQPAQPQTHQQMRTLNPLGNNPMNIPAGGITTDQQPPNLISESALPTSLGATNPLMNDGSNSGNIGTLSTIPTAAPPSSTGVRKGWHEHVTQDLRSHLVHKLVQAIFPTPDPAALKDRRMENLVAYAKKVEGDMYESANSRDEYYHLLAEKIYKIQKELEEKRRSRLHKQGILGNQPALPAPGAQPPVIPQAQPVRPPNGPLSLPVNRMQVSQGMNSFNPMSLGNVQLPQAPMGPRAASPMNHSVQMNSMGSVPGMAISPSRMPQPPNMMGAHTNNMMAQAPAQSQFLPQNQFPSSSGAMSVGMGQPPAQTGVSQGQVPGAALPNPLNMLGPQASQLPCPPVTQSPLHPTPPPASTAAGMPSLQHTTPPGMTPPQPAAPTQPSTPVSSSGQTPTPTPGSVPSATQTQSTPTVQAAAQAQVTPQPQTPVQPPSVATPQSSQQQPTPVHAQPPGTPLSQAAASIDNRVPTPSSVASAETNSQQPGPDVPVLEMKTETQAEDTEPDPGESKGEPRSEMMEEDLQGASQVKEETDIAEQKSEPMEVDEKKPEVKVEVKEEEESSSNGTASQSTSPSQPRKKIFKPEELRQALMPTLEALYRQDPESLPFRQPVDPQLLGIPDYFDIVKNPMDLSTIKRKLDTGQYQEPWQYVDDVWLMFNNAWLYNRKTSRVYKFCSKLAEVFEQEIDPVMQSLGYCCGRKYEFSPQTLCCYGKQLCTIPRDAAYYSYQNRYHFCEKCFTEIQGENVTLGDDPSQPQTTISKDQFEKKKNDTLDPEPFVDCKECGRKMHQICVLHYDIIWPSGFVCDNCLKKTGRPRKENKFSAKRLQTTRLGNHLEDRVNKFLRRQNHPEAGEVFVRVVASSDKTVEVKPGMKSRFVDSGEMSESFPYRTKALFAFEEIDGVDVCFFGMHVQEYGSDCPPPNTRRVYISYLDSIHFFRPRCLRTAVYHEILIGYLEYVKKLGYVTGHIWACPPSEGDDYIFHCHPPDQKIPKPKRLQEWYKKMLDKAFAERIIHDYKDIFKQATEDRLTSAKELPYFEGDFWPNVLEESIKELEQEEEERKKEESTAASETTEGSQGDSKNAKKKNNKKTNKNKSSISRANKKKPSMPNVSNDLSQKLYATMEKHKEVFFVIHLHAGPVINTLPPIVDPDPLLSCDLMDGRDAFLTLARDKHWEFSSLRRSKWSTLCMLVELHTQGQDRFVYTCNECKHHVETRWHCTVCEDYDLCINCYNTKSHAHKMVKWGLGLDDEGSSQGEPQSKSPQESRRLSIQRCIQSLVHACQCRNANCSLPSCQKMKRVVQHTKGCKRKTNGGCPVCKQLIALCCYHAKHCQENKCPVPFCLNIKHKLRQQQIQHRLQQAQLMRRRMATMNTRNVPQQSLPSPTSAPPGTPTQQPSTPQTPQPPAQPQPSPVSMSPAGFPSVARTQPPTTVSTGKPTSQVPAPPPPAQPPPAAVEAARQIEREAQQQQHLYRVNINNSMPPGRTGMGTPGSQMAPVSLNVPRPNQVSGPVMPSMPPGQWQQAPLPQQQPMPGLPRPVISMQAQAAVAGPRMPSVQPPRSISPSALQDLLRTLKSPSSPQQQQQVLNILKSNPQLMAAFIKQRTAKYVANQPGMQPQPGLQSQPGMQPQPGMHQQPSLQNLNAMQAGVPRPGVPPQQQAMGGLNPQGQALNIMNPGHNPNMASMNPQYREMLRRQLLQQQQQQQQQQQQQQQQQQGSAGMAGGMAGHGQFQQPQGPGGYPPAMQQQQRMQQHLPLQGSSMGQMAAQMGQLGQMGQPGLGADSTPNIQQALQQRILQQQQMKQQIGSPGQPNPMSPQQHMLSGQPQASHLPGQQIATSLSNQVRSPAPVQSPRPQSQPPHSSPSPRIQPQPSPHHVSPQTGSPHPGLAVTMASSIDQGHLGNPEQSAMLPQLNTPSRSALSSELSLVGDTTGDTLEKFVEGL
# Text: as §1
# HL60 = assay: Cell growth inhibition in HL60; assay type: cell-based; settings: Homo sapiens, HL-60, HL60 cells; read-out: Cell Growth Inhibition (IC50) HL60
# 22Rv1 cells = assay: Cell growth inhibition assay (CellTiter-Glo) in 22Rv1; assay type: cell-based, human; settings: Homo sapiens, 22Rv1 cells, 96 h incubation, read-out: Cell Growth Inhibition (IC50) 22Rv1
# Procedure, shortened: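 22Rv1 prostate cancer cells (passages 3-8, DMEM with 10% FBS) were seeded at 4000 cells/well with compound, 3-fold dilutions from 10 μM final. After 96 h at 37° C and 5% CO2, growth was read by CellTiter-Glo 2.0 luminescence.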
Structure (SMILES),"DC50 (P300; 22Rv1 cells, 5 h) [nM]","Dmax (P300; 22Rv1 cells, 5 h) [%]","Dmax (CBP; 22Rv1 cells, 5 h) [%]","DC50 (CBP; 22Rv1 cells, 5 h) [nM]",IC50 (HL60) [nM],"IC50 (22Rv1 cells; 22Rv1, 96 h) [nM]","Dmax (P300; 22Rv1, 5 h) [%]",Dmax (CBP) [%],IC50 (22Rv1 cells) [nM]
"Cn1cc(-c2cc3c(cc2C(F)F)N(c2nn(C4CCN(C(=O)CN5Cc6cc7c(cc6C5)C(=O)N(C5CCC(=O)NC5=O)C7=O)CC4)c4c2CN(C(=O)C(F)F)CC4)CCC3)cn1 (stereo not drawn) [CP-056, 6-(2-(4-(5-(2,2-difluoroacetyl)-3-(7-(difluoromethyl)-6-(1-methyl-1H-pyrazol-4-yl)-3,4-dihydroquinolin-1(2H)-yl)-4,5,6,7-tetrahydro-1H-pyrazolo[4,3-c]pyridin-1-yl)piperidin-1-yl)-2-oxoethyl)-2-(2,6-dioxopiperidin-3-yl)-6,7-dihydropyrrolo[3,4-f]isoindole-1,3(2H,5H)-dione]",> 1000,< 50,> 50,< 1000,< 1000,< 1000,–,–,–
"CC(=O)N1Cc2c(N3CCCc4cc(-c5cnn(C)c5)c(C(F)F)cc43)nn(C3CCN(C(=O)CN4Cc5cc6c(cc5C4)C(=O)N(C4CCC(=O)NC4=O)C6=O)CC3)c2C(C)(C)C1 (stereo not drawn) [CP-084, 6-(2-(4-(5-acetyl-3-(7-(difluoromethyl)-6-(1-methyl-1H-pyrazol-4-yl)-3,4-dihydroquinolin-1(2H)-yl)-7,7-dimethyl-4,5,6,7-tetrahydro-1H-pyrazolo[4,3-c]pyridin-1-yl)piperidin-1-yl)-2-oxoethyl)-2-(2,6-dioxopiperidin-3-yl)-6,7-dihydropyrrolo[3,4-f]isoindole-1,3(2H,5H)-dione]",> 1000,< 50,< 50,> 1000,> 10000,> 10000,–,–,–
"CC(=O)N1CCc2c(c(N3CCCc4cc(-c5cnn(C)c5)c(C(F)F)cc43)nn2[C@H]2CC[C@@H](CN3CCc4cc5c(cc4C3)C(=O)N(C3CCC(=O)NC3=O)C5=O)CC2)C1 (relative stereo) [CP-050, 6-((4-(5-acetyl-3-(7-(difluoromethyl)-6-(1-methyl-1H-pyrazol-4-yl)-3,4-dihydroquinolin-1(2H)-yl)-4,5,6,7-tetrahydro-1H-pyrazolo[4,3-c]pyridin-1-yl)cyclohexyl)methyl)-2-(2,6-dioxopiperidin-3-yl)-5,6,7,8-tetrahydro-1H-pyrrolo[3,4-g]isoquinoline-1,3(2H)-dione]",< 10,> 90,> 90,< 10,< 100,< 100,–,–,–
"Cc1noc(C)c1-c1ccc2c(c1)nc([C@@H]1CCCC(=O)N1c1ccc(F)c(F)c1)n2C1CCN(C(=O)CN2CCc3cc4c(cc3C2)C(=O)N(C2CCC(=O)NC2=O)C4=O)CC1 (stereo partly drawn) [CP-063, 6-(2-(4-(2-((S)-1-(3,4-difluorophenyl)-6-oxopiperidin-2-yl)-5-(3,5-dimethylisoxazol-4-yl)-1H-benzo[d]imidazol-1-yl)piperidin-1-yl)-2-oxoethyl)-2-(2,6-dioxopiperidin-3-yl)-5,6,7,8-tetrahydro-1H-pyrrolo[3,4-g]isoquinoline-1,3(2H)-dione]",> 1000,< 50,< 50,> 1000,> 10000,> 10000,–,–,–
"Cn1cc(-c2cc3c(cc2C(F)F)N(c2nn(C4CCN(C(=O)CN5Cc6cc7c(cc6C5)C(=O)N(C5CCC(=O)NC5=O)C7=O)CC4)c4c2CN(C(=O)CF)CC4)CCC3)cn1 (stereo not drawn) [CP-053, 6-(2-(4-(3-(7-(difluoromethyl)-6-(1-methyl-1H-pyrazol-4-yl)-3,4-dihydroquinolin-1(2H)-yl)-5-(2-fluoroacetyl)-4,5,6,7-tetrahydro-1H-pyrazolo[4,3-c]pyridin-1-yl)piperidin-1-yl)-2-oxoethyl)-2-(2,6-dioxopiperidin-3-yl)-6,7-dihydropyrrolo[3,4-f]isoindole-1,3(2H,5H)-dione]",< 100,–,–,< 10,< 1000,–,> 50,> 70,< 1000
"CC(=O)N1CCc2c(c(N3CCCc4cc(-c5cnn(C)c5)c(C(F)F)cc43)nn2C2CCC(CCN3CCc4cc5c(cc4C3)C(=O)N(C3CCC(=O)NC3=O)C5=O)CC2)C1 (stereo not drawn) [CP-045, 6-(2-(4-(5-acetyl-3-(7-(difluoromethyl)-6-(1-methyl-1H-pyrazol-4-yl)-3,4-dihydroquinolin-1(2H)-yl)-4,5,6,7-tetrahydro-1H-pyrazolo[4,3-c]pyridin-1-yl)cyclohexyl)ethyl)-2-(2,6-dioxopiperidin-3-yl)-5,6,7,8-tetrahydro-1H-pyrrolo[3,4-g]isoquinoline-1,3(2H)-dione]",< 10,> 70,> 90,< 10,< 100,< 100,–,–,–

# The next lines start with results.
"DC50 (P300; 22Rv1 cells, 5 h) [nM]","Dmax (P300; 22Rv1 cells, 5 h) [%]","Dmax (CBP; 22Rv1 cells, 5 h) [%]","DC50 (CBP; 22Rv1 cells, 5 h) [nM]",IC50 (HL60) [nM],"IC50 (22Rv1 cells; 22Rv1, 96 h) [nM]",Structure (SMILES),"Dmax (P300; 22Rv1, 5 h) [%]",Dmax (CBP) [%],IC50 (22Rv1 cells) [nM]
< 10,> 70,> 90,< 10,< 1000,< 1000,"CC(=O)N1CCc2c(c(N3CCCc4cc5c(cc43)CCCC5)nn2C2CCN(C(=O)CN3CCc4cc5c(cc4C3)C(=O)N(C3CCC(=O)NC3=O)C5=O)CC2)C1 (stereo not drawn) [CP-078, 6-(2-(4-(5-acetyl-3-(3,4,6,7,8,9-hexahydrobenzo[g]quinolin-1(2H)-yl)-4,5,6,7-tetrahydro-1H-pyrazolo[4,3-c]pyridin-1-yl)piperidin-1-yl)-2-oxoethyl)-2-(2,6-dioxopiperidin-3-yl)-5,6,7,8-tetrahydro-1H-pyrrolo[3,4-g]isoquinoline-1,3(2H)-dione]",–,–,–
> 1000,< 50,< 50,> 1000,< 10000,< 10000,"Cn1cc(-c2cc3c(cc2C(F)F)N(c2nn(C4CCN(C(=O)CN5Cc6cc7c(cc6C5)C(=O)N(C5CCC(=O)NC5=O)C7=O)CC4)c4c2CN(C(=O)C2CC2)CC4)CCC3)cn1 (stereo not drawn) [CP-054, 6-(2-(4-(5-(cyclopropanecarbonyl)-3-(7-(difluoromethyl)-6-(1-methyl-1H-pyrazol-4-yl)-3,4-dihydroquinolin-1(2H)-yl)-4,5,6,7-tetrahydro-1H-pyrazolo[4,3-c]pyridin-1-yl)piperidin-1-yl)-2-oxoethyl)-2-(2,6-dioxopiperidin-3-yl)-6,7-dihydropyrrolo[3,4-f]isoindole-1,3(2H,5H)-dione]",–,–,–
> 1000,< 50,< 50,> 1000,> 10000,> 10000,"CC(=O)N1CCc2c(c(N3CCCc4cc(Cl)c(C(F)F)cc43)nn2C2CCN(C(=O)CN3Cc4cc5c(cc4C3)C(=O)N(C3CCC(=O)NC3=O)C5=O)CC2)C1 (stereo not drawn) [CP-017, 6-(2-(4-(5-acetyl-3-(6-chloro-7-(difluoromethyl)-3,4-dihydroquinolin-1(2H)-yl)-4,5,6,7-tetrahydro-1H-pyrazolo[4,3-c]pyridin-1-yl)piperidin-1-yl)-2-oxoethyl)-2-(2,6-dioxopiperidin-3-yl)-6,7-dihydropyrrolo[3,4-f]isoindole-1,3(2H,5H)-dione]",–,–,–
< 10,> 70,< 50,< 10,< 100,< 1000,"CC(=O)N1CCc2c(c(N3CCCc4cc(CCC5CC5)c(C(F)F)cc43)nn2C2CCN(C(=O)CN3Cc4cc5c(cc4C3)C(=O)N(C3CCC(=O)NC3=O)C5=O)CC2)C1 (stereo not drawn) [CP-025, 6-(2-(4-(5-acetyl-3-(6-(2-cyclopropylethyl)-7-(difluoromethyl)-3,4-dihydroquinolin-1(2H)-yl)-4,5,6,7-tetrahydro-1H-pyrazolo[4,3-c]pyridin-1-yl)piperidin-1-yl)-2-oxoethyl)-2-(2,6-dioxopiperidin-3-yl)-6,7-dihydropyrrolo[3,4-f]isoindole-1,3(2H,5H)-dione]",–,–,–
< 10,> 70,> 90,< 10,< 100,< 1000,"CC(=O)N1CCc2c(c(N3CCCc4cc(CCC(C)C)c(C(F)F)cc43)nn2C2CCN(C(=O)CN3Cc4cc5c(cc4C3)C(=O)N(C3CCC(=O)NC3=O)C5=O)CC2)C1 (stereo not drawn) [CP-026, 6-(2-(4-(5-acetyl-3-(7-(difluoromethyl)-6-isopentyl-3,4-dihydroquinolin-1(2H)-yl)-4,5,6,7-tetrahydro-1H-pyrazolo[4,3-c]pyridin-1-yl)piperidin-1-yl)-2-oxoethyl)-2-(2,6-dioxopiperidin-3-yl)-6,7-dihydropyrrolo[3,4-f]isoindole-1,3(2H,5H)-dione]",–,–,–
< 10,> 70,> 90,< 10,< 100,< 1000,"CC(=O)N1CCc2c(c(N3CCCc4cc(C5CCCCC5)c(C(F)F)cc43)nn2C2CCN(C(=O)CN3Cc4cc5c(cc4C3)C(=O)N(C3CCC(=O)NC3=O)C5=O)CC2)C1 (stereo not drawn) [CP-021, 6-(2-(4-(5-acetyl-3-(6-cyclohexyl-7-(difluoromethyl)-3,4-dihydroquinolin-1(2H)-yl)-4,5,6,7-tetrahydro-1H-pyrazolo[4,3-c]pyridin-1-yl)piperidin-1-yl)-2-oxoethyl)-2-(2,6-dioxopiperidin-3-yl)-6,7-dihydropyrrolo[3,4-f]isoindole-1,3(2H,5H)-dione]",–,–,–
